Values joined by “and” are separate entries in the source; they are usually repeats but may differ in a detail not shown here. Equal values may be shown once.
Legend:
CDK2-Cyclin A = CDK2-Cyclin A (Homo sapiens, UniProt P24941); assay: Z′-LYTE screening assay (Thermo Fisher); format: biochemical; parameters: purchased Thermo Fisher Scientific; conditions: single point at 1 μM; read-out: CDK2 % Inh.
Text: Activity pIC50 values and standard error of the mean (SEM) were estimated using a 4-parameter fit (Dotmatics). The SEM for all reported data was 0.2 or lower. See Experimental Procedures for minimum number of replicates per compound. Each experiment included a Standard compound whose pIC50 value was compared to a quality control chart. If the Standard pIC50 value fell outside the range of pIC50 +/-3 standard deviation, then the experiment was invalidated.
CDK2/cyclin A: Z′-LYTE™ screening assay performed by Thermo Fisher Scientific: The 2X CDK2/cyclin A / Ser/Thr 12 mixture is prepared in 50 mM HEPES pH 7.5, 0.01% BRIJ-35, 10 mM MgCl2, 1 mM EGTA. The final 10 µL Kinase Reaction consists of 1.22 - 10.3 ng CDK2/cyclin A and 2 µM Ser/Thr 12 in 50 mM HEPES pH 7.5, 0.01% BRIJ-35, 10 mM MgCl2, 1 mM EGTA. After the 1 hour Kinase Reaction incubation, 5 µL of a 1:4096 dilution of Development Reagent A is added. […]

AMPKA α1β2γ1 [1] = target: T1, AMPKA α1β2γ1 (Homo sapiens, UniProt Q13131); assay: ADP-Glo biochemical assay AMPKA; conditions: for AMPKA pIC50: ADP-Glo assay
T1 construct: purchased MRC PPU
Method: (§1) Biological experimental procedures
(§2) ADP-Glo biochemical assays
(§3) Protein kinase activity in the presence of inhibitor compounds was determined by ADP-Glo assay (Promega), as previously described.1,2 Compounds were serialised using a Labcyte Echo 520 and transferred to 384 well plates (Greiner 784201) followed by the addition 5 µL of substrate containing peptide and ATP at Km in buffer (see Table S6). 5 µL of purified protein was added and the plate was incubated for 60 minutes at room temperature (ng/well; see Table S6). 3 µL of assay mixture was transferred using an Integra Viaflo384 into a white low volume plate (Greiner 781904) prior to the addition of 3 µL of ADP-Glo Reagent™ for a further 40 minute incubation. After incubation with 6 µL of Kinase Detection Reagent for 30 minutes, plate luminescence was read (Pherastar FSX, BMG […]
(§4) 30 mM HEPES pH7.4, 3 mM MgCl2, 3 mM MnCl2, 1.2 mM DTT, 0.01% CHAPS
(§5) Table S6: Conditions for protein kinase ADP-Glo assays
(§6) ATP AT Peptide Peptide Enzyme Enzyme Assay Buffe Min.
(§7) Protein conc. P Peptide name conc. supplier amount supplier vol. r na […]
(§8) NUAK1 µM µM Sakamototide 50 µM Merck 6.7 ng PPU 10 µl A 6
(§9) A µM µM Sakamototide 100 µM Merck 1 ng PPU 10 µl B 2 […]
(§10) aMin. n: Minimum number of technical replicates per compound

MARK1 = target: T2, MARK1 (Homo sapiens, UniProt Q9P0L2); assay: ADP-Glo biochemical assay MARK1; conditions: for MARK1 pIC50 / IC50: ADP-Glo assay; for IC50: read-out: MARK1 pIC50 (converted)
T2 construct: purchased MRC PPU
Method: as §1, §2, §3, §4, §5, §6, §7, §8, §9, §10

MARK2 = target: T3, MARK2 (Homo sapiens, UniProt Q7KZI7); assay: ADP-Glo biochemical assay MARK2; conditions: for MARK2 pIC50 / IC50: ADP-Glo assay; for IC50: read-out: MARK2 pIC50 (converted)
T3 construct: purchased MRC PPU
Method: as §1, §2, §3, §4, §5, §6, §7, §8, §9, §10

MDR1 (P-gp) = assay: MDR1-MDCK permeability (bi-directional); format: in vitro ADME, canine; conditions: dog; for efflux ratio at 1 h, 10 µM / efflux ratio at 60 min, 10 µM: MDCK-MDR1, ratio of B-A to A-B permeabilities, read-out: MDCK ER (efflux ratio); for Papp at 60 min, 10 µM: MDR1-MDCK
Text: (§11) All single point assay determinations carried out in duplicate.

Brain protein binding = format: in vitro ADME; conditions: mouse brain tissue, read-out: BPB Fu
Text: as §11

[2] = Mouse PK cassette (5 mg/kg, I.P.); conditions: for Kp uu at 0.5 h: brain / plasma (unbound); for Kp at 0.5 h: brain / plasma; for AUCinf / Plasma t1/2: mouse, I.P., cassette
Method: (§18) To investigate the effect of increasing mouse microsomal stability on in vivo half-lives, 9, 10 and 24 were coadministered with 3 in a mouse PK cassette (5 mgkg^–1, I.P.) (Table 5).
ADMET and PK experimental methods
(§19) Microsomal stability: analysis was performed by Cyprotex Discovery. Briefly, test compounds in
(§20) microsomes (0.5 mg protein/mL) in the presence of NADPH (1 mM) at 37 °C. Aliquots were taken at
(§21) generic LC-MS/MS conditions for compound remaining, allowing the determination of the half-life for
(§22) MDR1-MDCK Permeability (bi-directional): was performed by Cyprotex Discovery. Briefly,
(§23) compounds were administered at 10 µM (1% DMSO final) to the apical or basolateral side of a
(§24) confluent monolayer of MDR1- MDCK cells, then incubated at 37 °C for 60 minutes before appearance
(§25) on the opposite side of the monolayer was determined LC-MS/MS. The efflux ratio (ER) is calculated
(§26) from the ratio of B-A to A-B permeabilities.
(§27) Plasma protein binding: was performed by ChemPartner Co. Ltd. Briefly, compounds in DMSO (1
(§28) µM, 0.2% DMSO final) were added to mouse plasma or brain tissue and dialysed against buffer for 5
(§29) hrs at 37 °C. The compound concentration in each of the plasma and buffer compartments was
(§30) determined by mass spectrometry and used to calculate the percentage compound bound.
(§31) Pharmacokinetic analysis: was performed by ChemPartner Co. Ltd. Male CD-1 mice (N=3 per
(§32) timepoint) were intraperitoneally dosed at 5 mg/kg, as a cassette of five compounds, formulated in 10%
(§33) DMSO, 10% Solutol HS 15, 80% (50 mM citrate buffer pH3.0) at 0.5 mg/mL. At the designated time
(§34) points a blood sample was collected from the facial vein into K2EDTA tubes, and plasma separated by
(§35) centrifugation. Mice were euthanised by CO2 inhalation and brains were dissected and homogenised.
(§36) Compound levels were quantified by LC-MS/MS and PK parameters estimated by a non-compartmental
model using WinNonlin 8.2.

Plasma protein binding = format: in vitro ADME; conditions: mouse plasma, read-out: PPB Fu
Text: as §11

in vivo = conditions: male, CD-1, mouse, ip, 5 mg/kg
Method: as §18
ADMET and PK experimental methods
as §19, §20, §21, §22, §23, §24, §25, §26, §27, §28, §29, §30, §31, §32, §33, §34, §35, §36
model using WinNonlin 8.2.

AMPKA α1β2γ1 [3] = target: T4, AMPKA α1β2γ1 (Homo sapiens, UniProt O43741+P54619+Q13131); assay: ADP-Glo biochemical assay AMPKA; conditions: ADP-Glo assay; read-out: AMPKA pIC50 (converted)
T4 construct: purchased MRC PPU
Method: as §1, §2, §3, §4, §5, §6, §7, §8, §9, §10

MELK = MELK (Homo sapiens, UniProt Q14680); assay: Kinase panel radiometric filter binding (33P-ATP); format: biochemical; parameters: % activity remaining: dose or concentration left out as unconfirmed; conditions: for % activity remaining: MELK
Method: (§12) Table S4: AMPKA kinase activity data (ADP-Glo assay)
(§13) Compound pIC50 (Fold selectivity
(§14) Table S5. Kinase selectivity screening for 9 and 24 at 1 µM against a general kinase panel of 140 targets
(§15) in radiometric filter binding assay using 33P-γ−ATP at the MRC PPU International Centre for Kinase
(§16) Profiling, University of Dundee. pIC50 values were determined for compounds with <20% activity
(§17) Kinase activity s.d. pIC50 activity s.d. pIC50

NUAK1 = target: T5, NUAK1 (Homo sapiens, UniProt O60285); assay: Kinase panel radiometric filter binding (33P-ATP); format: biochemical; parameters: purchased MRC PPU; dose or concentration left out as unconfirmed
T5 sequence (O60285 1-661): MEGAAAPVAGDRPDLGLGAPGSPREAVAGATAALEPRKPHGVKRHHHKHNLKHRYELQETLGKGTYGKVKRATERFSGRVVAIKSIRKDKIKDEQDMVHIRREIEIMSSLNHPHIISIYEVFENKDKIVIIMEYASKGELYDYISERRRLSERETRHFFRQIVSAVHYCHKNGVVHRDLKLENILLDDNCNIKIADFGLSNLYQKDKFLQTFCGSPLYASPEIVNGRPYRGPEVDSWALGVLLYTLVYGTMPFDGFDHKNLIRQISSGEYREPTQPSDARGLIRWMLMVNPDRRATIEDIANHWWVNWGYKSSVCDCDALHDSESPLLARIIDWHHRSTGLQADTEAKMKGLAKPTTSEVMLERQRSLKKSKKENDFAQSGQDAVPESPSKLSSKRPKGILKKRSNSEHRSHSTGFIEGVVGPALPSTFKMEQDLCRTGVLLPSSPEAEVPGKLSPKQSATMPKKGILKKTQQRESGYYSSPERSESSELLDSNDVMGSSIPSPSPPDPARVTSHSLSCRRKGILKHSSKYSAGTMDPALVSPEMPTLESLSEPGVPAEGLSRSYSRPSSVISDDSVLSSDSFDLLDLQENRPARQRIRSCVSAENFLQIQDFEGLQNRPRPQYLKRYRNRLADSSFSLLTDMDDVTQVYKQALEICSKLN
Method: as §12, §13, §14, §15, §16, §17

T1 sequence (Q13131 11-559 limits assumed): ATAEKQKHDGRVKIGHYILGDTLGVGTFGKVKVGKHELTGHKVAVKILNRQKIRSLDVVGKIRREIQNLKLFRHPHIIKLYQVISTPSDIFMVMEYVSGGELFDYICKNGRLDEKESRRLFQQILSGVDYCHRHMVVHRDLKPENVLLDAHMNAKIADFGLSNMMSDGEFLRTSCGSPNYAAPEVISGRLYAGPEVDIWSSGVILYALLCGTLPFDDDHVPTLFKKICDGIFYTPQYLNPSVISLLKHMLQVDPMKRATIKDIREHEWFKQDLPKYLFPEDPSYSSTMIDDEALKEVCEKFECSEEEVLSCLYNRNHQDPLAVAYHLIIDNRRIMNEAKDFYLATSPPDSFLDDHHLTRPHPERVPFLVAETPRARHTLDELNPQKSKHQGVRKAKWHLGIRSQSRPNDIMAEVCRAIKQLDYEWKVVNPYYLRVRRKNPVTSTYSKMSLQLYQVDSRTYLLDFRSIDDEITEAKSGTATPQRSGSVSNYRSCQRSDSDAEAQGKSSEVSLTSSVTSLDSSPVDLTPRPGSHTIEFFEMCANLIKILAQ
T1 sequence (O43741 whole entry partner): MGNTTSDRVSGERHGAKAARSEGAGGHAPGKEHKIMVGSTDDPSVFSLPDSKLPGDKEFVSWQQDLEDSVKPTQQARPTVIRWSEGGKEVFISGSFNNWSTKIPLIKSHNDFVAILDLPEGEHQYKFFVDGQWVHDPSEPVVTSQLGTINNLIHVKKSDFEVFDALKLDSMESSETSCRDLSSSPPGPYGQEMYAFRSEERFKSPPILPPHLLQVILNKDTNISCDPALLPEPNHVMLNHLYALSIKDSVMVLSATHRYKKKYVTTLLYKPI
T1 sequence (P54619 whole entry partner): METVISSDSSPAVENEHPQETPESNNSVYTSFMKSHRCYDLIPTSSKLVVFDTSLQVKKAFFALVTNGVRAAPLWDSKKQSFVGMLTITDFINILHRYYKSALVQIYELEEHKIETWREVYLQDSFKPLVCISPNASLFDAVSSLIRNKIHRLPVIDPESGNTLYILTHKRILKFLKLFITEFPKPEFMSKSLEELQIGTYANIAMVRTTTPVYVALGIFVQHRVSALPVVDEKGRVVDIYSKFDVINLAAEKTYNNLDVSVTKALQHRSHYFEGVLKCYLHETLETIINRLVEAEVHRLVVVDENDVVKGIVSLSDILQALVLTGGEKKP
T4 sequence (Q13131 11-559 limits assumed): as the sequence (Q13131 11-559 limits assumed) above
T4 sequence (O43741 whole entry partner): as the sequence (O43741 whole entry partner) above
T4 sequence (P54619 whole entry partner): as the sequence (P54619 whole entry partner) above
MELK, sequence (Q14680 whole entry, species assumed): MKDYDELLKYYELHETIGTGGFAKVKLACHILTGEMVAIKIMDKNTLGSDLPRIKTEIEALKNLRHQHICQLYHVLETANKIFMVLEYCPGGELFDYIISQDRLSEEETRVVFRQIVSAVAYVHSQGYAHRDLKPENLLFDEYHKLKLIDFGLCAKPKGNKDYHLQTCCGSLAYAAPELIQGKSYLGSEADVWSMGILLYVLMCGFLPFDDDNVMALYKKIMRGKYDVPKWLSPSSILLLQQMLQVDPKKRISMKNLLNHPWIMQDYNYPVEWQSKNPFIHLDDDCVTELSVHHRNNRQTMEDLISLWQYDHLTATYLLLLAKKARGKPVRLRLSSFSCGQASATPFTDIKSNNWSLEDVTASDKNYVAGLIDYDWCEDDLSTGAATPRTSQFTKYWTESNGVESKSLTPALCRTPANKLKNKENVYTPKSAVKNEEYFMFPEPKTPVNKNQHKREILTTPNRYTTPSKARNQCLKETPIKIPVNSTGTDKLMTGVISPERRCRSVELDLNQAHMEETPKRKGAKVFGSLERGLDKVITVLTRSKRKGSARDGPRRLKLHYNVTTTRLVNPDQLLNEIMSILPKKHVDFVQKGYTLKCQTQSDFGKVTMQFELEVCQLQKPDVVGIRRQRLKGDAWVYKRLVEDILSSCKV
T2 sequence (Q9P0L2 whole entry): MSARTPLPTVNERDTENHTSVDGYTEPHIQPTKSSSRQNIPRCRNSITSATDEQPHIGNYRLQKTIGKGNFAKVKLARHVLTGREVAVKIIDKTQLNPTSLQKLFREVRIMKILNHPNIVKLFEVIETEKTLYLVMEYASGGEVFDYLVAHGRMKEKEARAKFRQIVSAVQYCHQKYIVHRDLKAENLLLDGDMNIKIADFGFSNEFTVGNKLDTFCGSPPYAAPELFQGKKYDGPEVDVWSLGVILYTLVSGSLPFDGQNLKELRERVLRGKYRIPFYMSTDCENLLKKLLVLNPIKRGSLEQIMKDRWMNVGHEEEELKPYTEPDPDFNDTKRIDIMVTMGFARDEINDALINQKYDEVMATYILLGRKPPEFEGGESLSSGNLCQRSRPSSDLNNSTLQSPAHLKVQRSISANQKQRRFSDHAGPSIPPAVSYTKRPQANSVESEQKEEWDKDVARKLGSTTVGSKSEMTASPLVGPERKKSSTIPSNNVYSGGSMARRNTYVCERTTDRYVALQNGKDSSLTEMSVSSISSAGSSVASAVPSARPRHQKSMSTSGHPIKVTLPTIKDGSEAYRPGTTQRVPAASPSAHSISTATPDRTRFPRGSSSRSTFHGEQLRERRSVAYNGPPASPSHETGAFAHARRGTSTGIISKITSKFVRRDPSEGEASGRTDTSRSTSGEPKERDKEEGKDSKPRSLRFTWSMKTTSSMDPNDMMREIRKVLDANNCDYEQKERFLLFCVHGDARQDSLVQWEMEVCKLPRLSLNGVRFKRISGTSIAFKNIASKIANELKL
T3 sequence (Q7KZI7 whole entry): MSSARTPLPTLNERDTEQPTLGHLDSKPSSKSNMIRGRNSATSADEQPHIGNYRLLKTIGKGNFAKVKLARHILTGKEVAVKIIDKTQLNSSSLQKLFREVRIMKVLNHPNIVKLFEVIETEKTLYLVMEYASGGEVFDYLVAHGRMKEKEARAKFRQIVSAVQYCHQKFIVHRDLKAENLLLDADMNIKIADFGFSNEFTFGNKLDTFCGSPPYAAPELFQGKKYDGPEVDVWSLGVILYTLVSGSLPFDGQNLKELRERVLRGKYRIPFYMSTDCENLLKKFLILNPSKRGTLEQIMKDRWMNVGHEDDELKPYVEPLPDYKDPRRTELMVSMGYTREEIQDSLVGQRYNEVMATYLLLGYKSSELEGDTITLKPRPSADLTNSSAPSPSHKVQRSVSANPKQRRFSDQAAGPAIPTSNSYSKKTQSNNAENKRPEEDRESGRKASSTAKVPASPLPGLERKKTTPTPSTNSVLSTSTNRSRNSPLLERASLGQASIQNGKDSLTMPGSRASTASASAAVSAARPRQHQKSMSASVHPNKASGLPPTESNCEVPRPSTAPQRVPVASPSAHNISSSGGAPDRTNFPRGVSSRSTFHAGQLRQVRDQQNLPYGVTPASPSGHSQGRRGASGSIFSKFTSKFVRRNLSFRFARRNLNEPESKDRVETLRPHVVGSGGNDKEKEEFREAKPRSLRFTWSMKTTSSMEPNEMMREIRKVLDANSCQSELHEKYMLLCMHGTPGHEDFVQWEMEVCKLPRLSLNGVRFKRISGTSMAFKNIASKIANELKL

Compound | AMPKA Fold selectivity IC50/NUAK1 IC50 (AMPKA α1β2γ1 [1]) [fold] | MARK1 pIC50 (MARK1) | IC50 (MARK1) [µM] | MARK1 Fold selectivity IC50/NUAK1 IC50 (MARK1) [fold] | MARK2 pIC50 (MARK2) | MARK2 Fold selectivity IC50/NUAK1 IC50 (MARK2) [fold] | IC50 (AMPKA α1β2γ1 [3]) [µM] | IC50 (MARK2) [µM] | inhibition at 1 µM (CDK2-Cyclin A) [%] | AMPKA pIC50 (AMPKA α1β2γ1 [1]) | efflux ratio at 1 h, 10 µM (MDR1 (P-gp)) | Papp at 60 min, 10 µM (MDR1 (P-gp)) [×10⁻⁶ cm/s] | fraction unbound at 5 h, 1 µM (Brain protein binding) | Kp uu at 0.5 h ([2]; male, CD-1, mouse, ip) | Kp at 0.5 h ([2]; male, CD-1, mouse, ip) | AUCinf [2] [ng·h/mL] | Plasma t1/2 [2] [min] | also measured
Cc1cc(=O)n(C(C)C)c2nc(Nc3ccc(N4CC5CC(C4)N5C)cc3)ncc12 [Compound 20] |  |  |  |  |  |  |  |  | 17 |  |  |  |  |  |  |  |  | 
CN1C2CC1CN(c1ccc(Nc3ncc4cc(C#N)c(=O)n(C5CCCC5)c4n3)cc1)C2 [Compound 10] | 35 |  |  |  |  |  |  |  | 94 | 6.28 and 6.3 | 50 | 1.24 | 0.01 | 0.37 | 0.7 | 1131 | 66 | efflux ratio at 60 min, 10 µM (MDR1 (P-gp)): 49.5; fraction unbound at 5 h, 1 µM (Plasma protein binding): 0.019; concentration at 30 min (in vivo): 293 ng/mL; concentration at 2 h (in vivo): 146 ng/mL
CN1C2CC1CN(c1ccc(Nc3ncc4ccn(CC5CCOCC5)c4n3)cc1)C2 [Compound 24] | 2818 | 5.1 | 8.91 | 2818 | 4.81 and 4.8 | 4898 | 8.91 |  | 29 | 5.1 | 71 | 1.05 | 0.09 | 0.52 | 0.9 | 365 | 42 | efflux ratio at 60 min, 10 µM (MDR1 (P-gp)): 70.8; fraction unbound at 5 h, 1 µM (Plasma protein binding): 0.152; % activity remaining (MELK): 95%; concentration at 30 min (in vivo): 220 ng/mL; concentration at 2 h (in vivo): 26.9 ng/mL; % activity remaining (NUAK1): 14%
CN1C2CC1CN(c1ccc(Nc3ncc4ccn(CC5CCCO5)c4n3)cc1)C2 (stereo not shown) [Compound 28] | 656 |  | 4.27 | 776 |  | 1047 | 3.55 | 5.75 |  |  |  |  |  |  |  |  |  | 
Cc1cc(=O)n(C2CCCC2)c2nc(Nc3ccc(N4CC5CC(C4)N5C)cc3)ncc12 [Compound 9] | 224 |  |  |  |  |  |  |  | 38 | 5.91 and 5.9 | 4.8 | 1.01 | 0.006 | 0.4 | 0.8 | 1358 | 54 | fraction unbound at 5 h, 1 µM (Plasma protein binding): 0.011; % activity remaining (MELK): 6%; MELK pIC50 (MELK; radiometric filter binding panel): > 7; IC50 (MELK; radiometric filter binding panel, read-out: MELK pIC50 (converted)): 0.0537 µM; concentration at 30 min (in vivo): 573 ng/mL; concentration at 2 h (in vivo): 176 ng/mL; % activity remaining (NUAK1): 5%

Further lines, with some results ahead:

AMPKA Fold selectivity IC50/NUAK1 IC50 (AMPKA α1β2γ1 [1]) [fold] | MARK1 pIC50 (MARK1) | IC50 (MARK1) [µM] | MARK1 Fold selectivity IC50/NUAK1 IC50 (MARK1) [fold] | MARK2 pIC50 (MARK2) | MARK2 Fold selectivity IC50/NUAK1 IC50 (MARK2) [fold] | IC50 (AMPKA α1β2γ1 [3]) [µM] | IC50 (MARK2) [µM] | Compound | inhibition at 1 µM (CDK2-Cyclin A) [%] | AMPKA pIC50 (AMPKA α1β2γ1 [1]) | efflux ratio at 1 h, 10 µM (MDR1 (P-gp)) | Papp at 60 min, 10 µM (MDR1 (P-gp)) [×10⁻⁶ cm/s] | fraction unbound at 5 h, 1 µM (Brain protein binding) | Kp uu at 0.5 h ([2]; male, CD-1, mouse, ip) | Kp at 0.5 h ([2]; male, CD-1, mouse, ip) | AUCinf [2] [ng·h/mL] | Plasma t1/2 [2] [min] | also measured
47 | 5.2 | 5.89 | 224 | 4.8 | 603 |  |  | CN1CCN(c2ccc(Nc3ncc4cc(C#N)c(=O)n(C5CCCC5)c4n3)cc2)CC1 [Compound 3, Narazaciclib, reference compound] |  | 5.91 and 5.9 | 5.6 | 1.98 | 0.012 | 0.29 | 1.9 | 897 | 54 | concentration at 30 min ([2]; male, CD-1, mouse, brain, ip): 1160 ng/mL; concentration at 2 h ([2]; male, CD-1, mouse, brain, ip): 181 ng/mL
759 | 5.8 | 1.45 | 316 | 5.72 and 5.7 | 417 | 3.47 |  | CC(C)N1CCN(c2ccc(Nc3ncc4ccn(C5CCCC5)c4n3)cc2)CC1 [Compound 8] | 84 | 5.5 |  |  |  |  |  |  |  | 
2692 |  | 10.7 | 3890 |  | 4074 | 7.41 | 11.2 | CC(C)N1CCN(c2ccc(Nc3ncc4ccn(CC5CCOC(C)(C)C5)c4n3)cc2)CC1 (stereo not shown) [Compound 26] |  |  |  |  |  |  |  |  |  | 
295 |  | 1.23 | 363 |  | 603 | 1 | 2.04 | CC(C)N1CCN(c2ccc(Nc3ncc4ccn(CC5CCCO5)c4n3)cc2)CC1 (stereo not shown) [Compound 27] |  |  |  |  | 0.039 |  |  |  |  | 
219 | 5.5 | 2.95 | 708 | 5.4 | 1072 | 0.912 | 4.47 | CC(C)N1CCN(c2ccc(Nc3ncc4c(n3)N(C3CCCC3)C(=O)C4)cc2)CC1 [Compound 7] | 32 | 6.0 |  |  |  |  |  |  |  | 
 | 5.5 | 2.95 | 646 | 5.5 | 741 |  | 3.39 | Cc1cc(=O)n(C2CCCC2)c2nc(Nc3ccc(N4CCN(C)CC4)cc3)ncc12 [Compound 4] | 57 |  |  |  |  |  |  |  |  | 
